Experimental data: patent US20250177299A1, “MOLECULAR COMPLEXING METHOD, FORMULATION AND MANUFACTURING FOR ENHANCED NUTRIENT DELIVERY” (Ingredient Fusion, LLC, priority 2021, published 2025)
Where two headings read alike, the source gives them in different places.

Assay: long term formulation trials of natural stability and dispersion aids
Format: physicochemical
From the text: Additionally, popular formularies like lecithin and glycerin were trialed. […] Thus, Glycerin alone was not useful to the invention disclosed herein which requires higher loading rates to achieve improved efficacy and a simplified industrially scalable process.

| stability of formulation in trials | Molecule | stability of formulation in trials (used as stabilizing/dispersion aid in nano and micro-emulsion formulations, long term trials) |
| --- | --- | --- |
| – | OCC(O)CO [Glycerin] | very low stability unless used in very small quantities |
| high microbial activity | pectin | – |
